Experiment [1] has as its target Tyrosine-protein kinase Fyn (Homo sapiens) (UniProt P06241). The experiment is described as follows: Selectivity interaction (Kinase panel (KiNativ target engagement assay in Jurkat cells)) EUB0001635a FYN. The settings on record: Selectivity number of off-targets 0.0, Selectivity number of targets 233.0, Source Knowledge https://www.sciencedirect.com/science/article/pii/S2451945619300674?via%3Dihub, at 1 µM. It is filed as cell-based.

Experiment [2] deals with Ribosomal protein S6 kinase alpha-4 (Homo sapiens) (UniProt O75676). The experiment is described as follows: Selectivity interaction (KinomeScan (DiscoverX)) EUB0000607a RPS6KA4. The settings on record: at 10 µM.
Ribosomal protein S6 kinase alpha-4 (Homo sapiens), sequence (O75676 whole entry, looked up): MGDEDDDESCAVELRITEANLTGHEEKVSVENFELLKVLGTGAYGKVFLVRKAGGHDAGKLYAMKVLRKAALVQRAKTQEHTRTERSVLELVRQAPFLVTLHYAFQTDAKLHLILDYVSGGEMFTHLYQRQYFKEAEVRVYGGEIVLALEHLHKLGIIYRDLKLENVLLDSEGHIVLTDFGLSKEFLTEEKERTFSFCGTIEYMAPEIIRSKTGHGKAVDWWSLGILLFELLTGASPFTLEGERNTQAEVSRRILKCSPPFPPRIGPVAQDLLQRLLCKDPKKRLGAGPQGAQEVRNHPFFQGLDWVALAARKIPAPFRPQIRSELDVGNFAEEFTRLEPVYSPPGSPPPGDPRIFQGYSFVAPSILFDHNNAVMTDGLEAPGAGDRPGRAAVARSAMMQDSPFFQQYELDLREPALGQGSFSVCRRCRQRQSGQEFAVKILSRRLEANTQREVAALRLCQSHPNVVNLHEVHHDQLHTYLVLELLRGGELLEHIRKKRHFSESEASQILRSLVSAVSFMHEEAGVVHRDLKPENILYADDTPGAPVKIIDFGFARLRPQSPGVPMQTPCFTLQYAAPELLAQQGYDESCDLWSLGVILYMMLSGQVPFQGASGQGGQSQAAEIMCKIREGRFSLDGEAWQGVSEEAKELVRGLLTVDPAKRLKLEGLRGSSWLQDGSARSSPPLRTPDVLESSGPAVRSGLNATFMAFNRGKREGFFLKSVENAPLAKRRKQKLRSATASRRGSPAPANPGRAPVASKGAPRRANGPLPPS
Experiment [3] has as its target T1, Phosphatidylinositol 5-phosphate 4-kinase type-2 beta (Homo sapiens) (UniProt P78356).
T1 sequence (whole entry): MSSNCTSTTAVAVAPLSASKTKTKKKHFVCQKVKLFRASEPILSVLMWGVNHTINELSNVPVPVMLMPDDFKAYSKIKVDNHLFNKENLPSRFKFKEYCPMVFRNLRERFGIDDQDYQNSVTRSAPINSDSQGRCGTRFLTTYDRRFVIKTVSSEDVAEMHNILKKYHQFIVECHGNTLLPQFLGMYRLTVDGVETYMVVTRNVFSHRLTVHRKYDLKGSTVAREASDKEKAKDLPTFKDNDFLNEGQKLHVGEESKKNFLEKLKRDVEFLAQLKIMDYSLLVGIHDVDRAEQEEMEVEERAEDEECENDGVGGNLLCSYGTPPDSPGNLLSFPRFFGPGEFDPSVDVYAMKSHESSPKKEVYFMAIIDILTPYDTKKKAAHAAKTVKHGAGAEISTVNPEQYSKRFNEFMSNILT
The experiment can be described thus: Selectivity interaction (KinomeScan (DiscoverX)) EUB0001079a PIP4K2B. The settings on record: at 1 µM.

The target of experiment [4] is T2, Serine/threonine-protein kinase ULK1 (Homo sapiens) (UniProt O75385).
T2 sequence (whole entry): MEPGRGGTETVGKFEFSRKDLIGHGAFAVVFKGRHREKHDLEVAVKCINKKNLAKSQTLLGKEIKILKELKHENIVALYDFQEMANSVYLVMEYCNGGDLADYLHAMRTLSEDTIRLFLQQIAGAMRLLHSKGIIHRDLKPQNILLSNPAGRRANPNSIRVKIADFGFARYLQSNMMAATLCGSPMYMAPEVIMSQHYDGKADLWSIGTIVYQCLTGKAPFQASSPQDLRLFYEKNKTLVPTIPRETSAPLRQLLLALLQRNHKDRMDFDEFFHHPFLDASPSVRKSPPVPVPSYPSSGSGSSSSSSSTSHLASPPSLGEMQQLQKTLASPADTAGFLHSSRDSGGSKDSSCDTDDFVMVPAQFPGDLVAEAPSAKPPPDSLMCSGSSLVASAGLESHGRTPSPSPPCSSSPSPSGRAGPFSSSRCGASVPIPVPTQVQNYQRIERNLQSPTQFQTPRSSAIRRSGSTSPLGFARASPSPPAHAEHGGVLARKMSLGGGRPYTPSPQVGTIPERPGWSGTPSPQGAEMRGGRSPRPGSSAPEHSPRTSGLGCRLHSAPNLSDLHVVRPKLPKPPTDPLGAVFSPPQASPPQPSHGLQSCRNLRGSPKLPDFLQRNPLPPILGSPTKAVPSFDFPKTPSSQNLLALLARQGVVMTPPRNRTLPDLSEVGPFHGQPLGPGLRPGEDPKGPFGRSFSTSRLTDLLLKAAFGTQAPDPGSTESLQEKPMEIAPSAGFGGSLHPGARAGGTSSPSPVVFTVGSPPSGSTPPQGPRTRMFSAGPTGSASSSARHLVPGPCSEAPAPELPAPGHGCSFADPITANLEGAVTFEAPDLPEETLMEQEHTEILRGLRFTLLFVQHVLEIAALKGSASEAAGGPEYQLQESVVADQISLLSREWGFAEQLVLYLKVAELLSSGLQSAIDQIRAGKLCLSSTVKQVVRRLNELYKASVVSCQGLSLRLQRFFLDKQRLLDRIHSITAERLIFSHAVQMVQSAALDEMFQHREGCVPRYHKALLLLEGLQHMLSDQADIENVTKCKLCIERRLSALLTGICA
The experiment is described as follows: Selectivity interaction (ActivX KiNativ screen (kinase selectivity in THP-1 cell lysates)) EUB0000639a ULK1. It is filed as subcellular. The settings on record: lysate.

Experiment [5] addresses Serine/threonine-protein kinase Nek4 (Homo sapiens) (UniProt P51957). The experiment is described as follows: Selectivity interaction (KinomeScan (DiscoverX)) EUB0000092b NEK4. The settings on record: at 10 µM.
For experiment [6], the target named is Mitogen-activated protein kinase 3 (Homo sapiens, UniProt P27361). The experiment can be described thus: Selectivity interaction (KinomeScan (DiscoverX)) EUB0000092b MAPK3. The settings on record: at 10 µM.
Mitogen-activated protein kinase 3, sequence (P27361 whole entry): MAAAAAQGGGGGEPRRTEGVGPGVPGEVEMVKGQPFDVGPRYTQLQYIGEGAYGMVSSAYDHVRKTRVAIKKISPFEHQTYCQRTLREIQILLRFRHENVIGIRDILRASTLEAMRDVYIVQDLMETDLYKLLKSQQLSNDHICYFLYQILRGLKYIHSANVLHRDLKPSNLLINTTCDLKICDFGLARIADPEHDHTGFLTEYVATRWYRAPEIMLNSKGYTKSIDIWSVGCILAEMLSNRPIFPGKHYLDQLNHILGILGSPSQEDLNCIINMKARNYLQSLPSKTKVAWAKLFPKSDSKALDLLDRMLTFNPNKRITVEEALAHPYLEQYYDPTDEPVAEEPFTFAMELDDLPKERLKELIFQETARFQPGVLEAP
Experiment [7] addresses Mitogen-activated protein kinase 9 (Homo sapiens, UniProt P45984). The experiment is described as follows: Selectivity interaction (Kinase panel (DSF assay)) EUB0001559a MAPK9.
Experiment [8] has as its target T3, Ephrin type-A receptor 3 (Homo sapiens) (UniProt P29320).
T3 sequence (whole entry): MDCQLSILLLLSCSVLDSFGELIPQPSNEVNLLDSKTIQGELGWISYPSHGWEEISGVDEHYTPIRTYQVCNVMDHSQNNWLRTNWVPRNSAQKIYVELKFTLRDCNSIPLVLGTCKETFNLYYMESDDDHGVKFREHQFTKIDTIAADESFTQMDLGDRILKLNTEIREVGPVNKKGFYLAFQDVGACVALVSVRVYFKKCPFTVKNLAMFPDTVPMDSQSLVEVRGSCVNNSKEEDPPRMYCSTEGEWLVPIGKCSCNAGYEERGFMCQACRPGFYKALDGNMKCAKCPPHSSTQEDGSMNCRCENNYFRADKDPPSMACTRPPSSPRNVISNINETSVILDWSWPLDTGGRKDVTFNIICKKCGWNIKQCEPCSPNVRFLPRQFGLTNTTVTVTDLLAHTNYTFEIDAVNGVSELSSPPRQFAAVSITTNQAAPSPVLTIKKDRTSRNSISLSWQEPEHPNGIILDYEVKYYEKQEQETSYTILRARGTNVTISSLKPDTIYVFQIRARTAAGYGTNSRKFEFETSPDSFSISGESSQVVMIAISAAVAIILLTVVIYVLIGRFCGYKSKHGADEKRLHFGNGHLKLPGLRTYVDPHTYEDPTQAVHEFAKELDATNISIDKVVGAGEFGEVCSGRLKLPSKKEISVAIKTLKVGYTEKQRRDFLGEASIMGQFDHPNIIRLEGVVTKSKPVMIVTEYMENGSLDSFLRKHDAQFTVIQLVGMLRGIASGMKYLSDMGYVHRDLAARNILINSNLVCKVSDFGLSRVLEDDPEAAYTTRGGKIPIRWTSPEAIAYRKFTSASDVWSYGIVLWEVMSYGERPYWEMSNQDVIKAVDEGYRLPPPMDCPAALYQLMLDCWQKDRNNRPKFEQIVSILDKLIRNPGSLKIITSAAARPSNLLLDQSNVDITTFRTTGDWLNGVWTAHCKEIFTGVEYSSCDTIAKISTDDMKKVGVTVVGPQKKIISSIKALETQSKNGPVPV
The experiment can be described thus: Selectivity interaction (KinomeScan (DiscoverX)) EUB0000595a EPHA3. The settings on record: at 10 µM.

Serine/threonine-protein kinase Nek4 (Homo sapiens), sequence (P51957 whole entry, looked up): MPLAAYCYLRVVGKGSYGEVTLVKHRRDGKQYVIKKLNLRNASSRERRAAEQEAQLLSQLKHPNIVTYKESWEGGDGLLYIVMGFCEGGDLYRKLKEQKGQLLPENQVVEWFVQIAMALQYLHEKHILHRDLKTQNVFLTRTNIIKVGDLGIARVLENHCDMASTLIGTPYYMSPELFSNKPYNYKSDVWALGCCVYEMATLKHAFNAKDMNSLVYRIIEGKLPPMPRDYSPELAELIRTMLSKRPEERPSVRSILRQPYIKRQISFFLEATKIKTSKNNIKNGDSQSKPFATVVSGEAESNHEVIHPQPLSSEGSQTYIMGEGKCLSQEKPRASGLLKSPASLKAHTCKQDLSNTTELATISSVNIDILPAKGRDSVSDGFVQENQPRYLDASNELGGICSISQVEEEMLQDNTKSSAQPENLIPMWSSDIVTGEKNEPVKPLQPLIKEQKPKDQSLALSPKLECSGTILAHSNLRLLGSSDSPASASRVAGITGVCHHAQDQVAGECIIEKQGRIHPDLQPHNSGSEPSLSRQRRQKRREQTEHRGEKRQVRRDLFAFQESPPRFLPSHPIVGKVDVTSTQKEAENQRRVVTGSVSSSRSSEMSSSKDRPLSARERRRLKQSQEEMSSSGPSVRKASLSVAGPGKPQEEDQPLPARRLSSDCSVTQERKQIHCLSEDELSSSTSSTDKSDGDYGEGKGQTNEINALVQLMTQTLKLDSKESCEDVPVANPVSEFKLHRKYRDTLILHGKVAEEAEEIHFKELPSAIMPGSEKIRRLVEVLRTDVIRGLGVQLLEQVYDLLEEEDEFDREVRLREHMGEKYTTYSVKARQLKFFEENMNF
Mitogen-activated protein kinase 9, sequence (P45984 whole entry, looked up): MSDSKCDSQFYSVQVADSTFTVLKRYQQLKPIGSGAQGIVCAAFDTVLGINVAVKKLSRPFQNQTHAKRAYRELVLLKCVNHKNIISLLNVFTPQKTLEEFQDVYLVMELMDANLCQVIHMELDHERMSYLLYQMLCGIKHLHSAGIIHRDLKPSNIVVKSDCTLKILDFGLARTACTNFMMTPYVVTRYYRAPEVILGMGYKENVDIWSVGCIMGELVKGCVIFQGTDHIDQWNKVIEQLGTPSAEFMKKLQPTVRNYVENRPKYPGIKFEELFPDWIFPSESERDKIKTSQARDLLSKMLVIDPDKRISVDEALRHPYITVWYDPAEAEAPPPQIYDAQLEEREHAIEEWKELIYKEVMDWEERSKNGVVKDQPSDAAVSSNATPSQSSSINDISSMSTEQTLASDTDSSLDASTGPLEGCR
Tyrosine-protein kinase Fyn (Homo sapiens), sequence (P06241 2-537 limits assumed): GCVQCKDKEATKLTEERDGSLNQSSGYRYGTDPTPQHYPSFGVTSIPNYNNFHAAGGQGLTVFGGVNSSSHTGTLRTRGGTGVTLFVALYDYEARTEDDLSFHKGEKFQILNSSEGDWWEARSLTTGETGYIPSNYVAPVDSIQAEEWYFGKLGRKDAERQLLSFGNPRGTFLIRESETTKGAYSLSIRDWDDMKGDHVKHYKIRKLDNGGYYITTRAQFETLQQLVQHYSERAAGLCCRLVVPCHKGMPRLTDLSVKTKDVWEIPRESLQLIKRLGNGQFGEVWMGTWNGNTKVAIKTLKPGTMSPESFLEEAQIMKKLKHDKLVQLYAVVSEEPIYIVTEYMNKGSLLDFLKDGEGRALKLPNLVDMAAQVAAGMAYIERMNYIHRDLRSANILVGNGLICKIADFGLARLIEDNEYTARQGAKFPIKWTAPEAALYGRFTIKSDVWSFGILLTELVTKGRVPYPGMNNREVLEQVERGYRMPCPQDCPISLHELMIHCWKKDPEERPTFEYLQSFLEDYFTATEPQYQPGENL

As for `C=CC(=O)Nc1ccc(C(=O)Nc2[nH]nc3c2CN(C(=O)N[C@H](CN(C)C)c2ccccc2)C3(C)C)cc1`, in experiment [1], the % of engagement was found to be 6.2%.
In experiment [2], `CNC(=O)Nc1ccc(-c2nc(N3CC4CCC(C3)O4)c3cnn(C4CCC5(CC4)OCCO5)c3n2)cc1` returned a % of control of 100%.
Molecule `Nc1cnc(N2CCc3cc(S(=O)(=O)Nc4c(F)cc(Cl)cc4F)cc(N4CCCC4=O)c32)nc1` [TP-020n] had a % of control in experiment [3] of 100%.
With `CC[C@@H]1[C@H](F)C(=O)N[C@@H]1COc1nccc2cc(C(N)=O)c(OC)cc12` [ZIMLOVISERTIB], the % of inhibition is 4.8% in experiment [4] (at 0.01 µM); 4.1% in experiment [4] (at 0.04 µM); 6.2% in experiment [4] (at 0.2 µM); -18.5% in experiment [4] (at 1 µM); 8% in experiment [4] (at 5 µM).
Consider `CCC(=O)N1CCN(c2ccc(-n3c(=O)ccc4cnc5ccc(-c6cnc7ccccc7c6)cc5c43)cc2C(F)(F)F)CC1`, for which the % of control in experiment [5] worked out at 86%; in experiment [6] it was 91%.
For `CN(C(=O)c1cnn2cccnc12)c1cc2c(cc1N1CCOCC1)C(=O)N(C[C@@H](F)C(C)(C)O)C2`, the dTM in experiment [7] worked out at 0.5 K.
In experiment [8], `COCC(=O)NC/C=C/c1ccc2ncnc(Nc3ccc(Oc4ccc(C)nc4)c(C)c3)c2c1` [CP-724714] came in with a % of control of 97%.

The record behind these values is ChEMBL document CHEMBL5465560, “Selectivity Literature for EUbOPEN Chemogenomic Library” (2024).
